These results are taken from US7737136B2 (N.V. Organon, priority 2002, dated 2010).

Structures are written as SMILES. Where only a bound is given, the exact number is not on record here.

The target of this assay is T1, human progesterone receptor-B (Homo sapiens, UniProt P06401).
T1 construct: expressed in transfected cells; host or cells: Chinese hamster ovary (CHO) cells, line CHO-PRB-pMMTV-LUC 1E2-A2
T1 sequence (P06401 1-933): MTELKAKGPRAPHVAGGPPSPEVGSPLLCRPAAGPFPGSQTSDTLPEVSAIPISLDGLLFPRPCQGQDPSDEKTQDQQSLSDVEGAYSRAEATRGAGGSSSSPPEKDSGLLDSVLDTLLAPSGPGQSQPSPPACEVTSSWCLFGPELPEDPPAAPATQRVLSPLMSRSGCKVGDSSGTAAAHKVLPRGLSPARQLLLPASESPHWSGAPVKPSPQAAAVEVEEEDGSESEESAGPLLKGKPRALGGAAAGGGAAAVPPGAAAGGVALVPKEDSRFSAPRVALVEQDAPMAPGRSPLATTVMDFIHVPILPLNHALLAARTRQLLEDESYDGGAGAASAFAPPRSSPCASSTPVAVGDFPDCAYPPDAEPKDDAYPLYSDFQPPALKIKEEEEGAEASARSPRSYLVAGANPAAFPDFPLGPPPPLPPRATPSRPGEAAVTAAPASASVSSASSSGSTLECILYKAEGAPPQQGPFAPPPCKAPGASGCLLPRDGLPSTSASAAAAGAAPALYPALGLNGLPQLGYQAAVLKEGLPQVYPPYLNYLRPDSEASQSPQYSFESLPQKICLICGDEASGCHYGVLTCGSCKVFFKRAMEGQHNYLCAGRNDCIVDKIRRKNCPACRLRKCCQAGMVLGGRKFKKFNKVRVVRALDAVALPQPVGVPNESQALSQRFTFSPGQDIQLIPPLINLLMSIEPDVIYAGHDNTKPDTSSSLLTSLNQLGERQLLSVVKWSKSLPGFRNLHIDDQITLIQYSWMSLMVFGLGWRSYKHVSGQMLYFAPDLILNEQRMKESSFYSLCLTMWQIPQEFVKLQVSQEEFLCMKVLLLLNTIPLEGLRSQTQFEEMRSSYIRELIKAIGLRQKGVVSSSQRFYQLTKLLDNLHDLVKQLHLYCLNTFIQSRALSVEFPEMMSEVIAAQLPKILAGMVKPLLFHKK
In words: Progesterone receptor-B transactivation assay, progestagenic (agonist) activity, CHO-PRB-pMMTV-LUC 1E2-A2 cells. Format: cell-based. Particulars: CHO cells stably transfected with human progesterone receptor-B and MMTV-luciferase reporter; read-out: Progestagenic activity EC50. As to the method:
The (anti-)progestagenic activity of a compound of the invention (EC 50 and intrinsic activity) was determined in an in vitro bioassay of Chinese hamster ovary (CHO) cells stably transfected with the human progesterone receptor-B expression plasmid and with a reporter plasmid in which the MMTV-promoter is linked to the luciferase reporter gene. […] The cells were cultured with charcoal-treated supplemented defined bovine calf serum from Hyclone (Utah, USA) in Dulbecco's Modified Eagles Medium/Nutrient Mixture F-12 (DMEM/HAM F12 in ratio 1:1) from Gibco (Paisley, UK).
For orientation: In a reporter assay the amount or activity of a reporter protein is the signal.
With `COc1cccc2c1N1CCC[C@H](NC(=O)C(F)(F)F)[C@H]1c1ccccc1O2` (relative stereo) [Example 55, trans-N-(2,3,4,14b-Tetrahydro-6-methoxy-1H-dibenzo[b,f]pyrido[1,2-d][1,4]oxazepin-1-yl)-2,2,2-trifluoroacetamide], the EC50 (commonly the midpoint of the concentration-response curve) was in the range of 10 to 100 nM. As to `O=C(N[C@H]1CCCN2c3c(Br)cc(F)cc3Oc3ccccc3[C@H]12)C(F)(F)F` (relative stereo) [Example 56, trans-N-(6-Bromo-8-fluoro-2,3,4,14b-tetrahydro-1H-dibenzo[b,f]pyrido[1,2-d][1,4]oxazepin-1-yl)-2,2,2-trifluoroacetamide], the EC50 lay within 100 to 10000 nM. Then `CC(=O)c1cc(F)cc2c1N1CCC[C@H](NC(=O)C(F)(F)F)[C@H]1c1ccccc1O2` (relative stereo) [Example 57, trans-N-(6-Acetyl-8-fluoro-2,3,4,14b-tetrahydro-1H-dibenzo[b,f]pyrido[1,2-d][1,4]oxazepin-1-yl)-2,2,2-trifluoroacetamide], with less than 10 nM; and `N#Cc1cc(F)cc2c1N1CCC[C@H](NC(=O)C(F)(F)F)[C@H]1c1ccccc1O2` (relative stereo) [Example 58, trans-8-Fluoro-2,3,4,14b-tetrahydro-1-[(trifluoroacetyl)amino]-1H-dibenzo[b,f]pyrido-[1,2-d][1,4]oxazepine-6-carbonitrile], with less than 10 nM; and `C=Cc1cc(F)cc2c1N1CCC[C@H](NC(=O)C(F)(F)F)[C@H]1c1ccccc1O2` (relative stereo) [Example 59, trans-N-(6-Ethenyl-8-fluoro-2,3,4,14b-tetrahydro-1H-dibenzo[b,f]pyrido[1,2-d][1,4]-oxazepin-1-yl)-2,2,2-trifluoroacetamide], with less than 10 nM.

Take `Cc1cc(F)cc2c1N1CCC[C@H](NC(=O)C(F)(F)F)[C@H]1c1ccccc1O2` (relative stereo) [Example 60, trans-2,2,2-Trifluoro-N-(8-fluoro-2,3,4,14b-tetrahydro-6-methyl-1H-dibenzo[b,f]pyrido-[1,2-d][1,4]oxazepin-1-yl)acetamide]: the concentration giving a half-maximal response (EC50) was less than 10 nM. Then `O=C(N[C@H]1CCCN2c3cc(Br)ccc3Oc3ccccc3[C@H]12)C(F)(F)F` (relative stereo) [Example 61, trans-N-(7-Bromo-2,3,4,14b-tetrahydro-1H-dibenzo[b,f]pyrido[1,2-d][1,4]oxazepin-1-yl)-2,2,2-trifluoroacetamide], with less than 10 nM; and `CC(=O)c1ccc2c(c1)N1CCC[C@H](NC(=O)C(F)(F)F)[C@H]1c1ccccc1O2` (relative stereo) [Example 62, trans-N-(7-Acetyl-2,3,4,14b-tetrahydro-1H-dibenzo[b,f]pyrido[1,2-d][1,4]oxazepin-1-yl)-2,2,2-trifluoroacetamide], with 10 to 100 nM. Then `N#Cc1ccc2c(c1)N1CCC[C@H](NC(=O)C(F)(F)F)[C@H]1c1ccccc1O2` (relative stereo) [Example 63, trans-2,3,4,14b-Tetrahydro-1-[(trifluoroacetyl)amino]-1H-dibenzo[b,f]pyrido[1,2-d][1,4]oxazepine-7-carbonitrile], with less than 10 nM; and `C=Cc1ccc2c(c1)N1CCC[C@H](NC(=O)C(F)(F)F)[C@H]1c1ccccc1O2` (relative stereo) [Example 64, trans-N-(7-Ethenyl-2,3,4,14b-tetrahydro-1H-dibenzo[b,f]pyrido[1,2-d][1,4]oxazepin-1-yl)-2,2,2-trifluoroacetamide], with 100 to 10000 nM; and `CCC(=O)Nc1ccc2c(c1)N1CCC[C@H](NC(=O)C(F)(F)F)[C@H]1c1ccccc1O2` (relative stereo) [Example 67, trans-N-[2,3,4,14b-Tetrahydro-7-[(1-oxopropyl)amino]-1H-dibenzo[b,f]pyrido[1,2-d][1,4]oxazepin-1-yl]-2,2,2-trifluoroacetamide], with 100 to 10000 nM.

Turning to `O=C(N[C@H]1CCCN2c3cc(Cl)ccc3Oc3cc(Br)ccc3[C@H]12)C(F)(F)F` (relative stereo) [Example 68, trans-N-(12-Bromo-7-chloro-2,3,4,14b-tetrahydro-1H-dibenzo[b,f]pyrido[1,2-d][1,4]oxazepin-1-yl)-2,2,2-trifluoroacetamide], the EC50 fell in the range of 10 to 100 nM.

Consider `N#Cc1ccc2c(c1)Oc1ccc(Cl)cc1N1CCC[C@H](NC(=O)C(F)(F)F)[C@@H]21` (relative stereo) [Example 69, trans-7-Chloro-2,3,4,14b-tetrahydro-1-[(trifluoroacetyl)amino]-1H-dibenzo[b,f]pyrido[1,2-d][1,4]oxazepine-12-carbonitrile], for which the EC50 lay within 10 to 100 nM.

For `Cc1ccc2c(c1)Oc1ccc(Cl)cc1N1CCC[C@H](NC(=O)C(F)(F)F)[C@@H]21` (relative stereo) [Example 70, trans-N-(7-Chloro-2,3,4,14b-tetrahydro12-methyl-1H-dibenzo[b,f]pyrido[1,2-d][1,4]oxazepin-1-yl)-2,2,2-trifluoroacetamide], the EC50 fell in the range of 10 to 100 nM. In the case of `O=C(N[C@H]1CCCN2c3c(ccc(Cl)c3Cl)Oc3cc(Br)ccc3[C@H]12)C(F)(F)F` (relative stereo) [Example 71, trans-N-(12-Bromo-6,7-dichloro-2,3,4,14b-tetrahydro-1H-dibenzo[b,f]pyrido[1,2-d][1,4]oxazepin-1-yl)-2,2,2-trifluoroacetamide], the EC50 is less than 10 nM. Then `O=C(N[C@H]1CCCN2c3cc(Cl)ccc3Oc3c(F)cccc3[C@H]12)C(F)(F)F` (relative stereo) [Example 72, trans-N-(7-Chloro-11-fluoro-2,3,4,14b-tetrahydro-1H-dibenzo[b,f]pyrido[1,2-d][1,4]oxazepin-1-yl)-2,2,2-trifluoroacetamide], with 10 to 100 nM.

As to `O=C(N[C@H]1CCCN2c3cc(Cl)ccc3Oc3cccc(F)c3[C@H]12)C(F)(F)F` (relative stereo) [Example 73, trans-N-(7-Chloro-14-fluoro-2,3,4,14b-tetrahydro-1H-dibenzo[b,f]pyrido[1,2-d][1,4]oxazepin-1-yl)-2,2,2-trifluoroacetamide], the EC50 was less than 10 nM. The same measure for `O=C(N[C@H]1CCCN2c3cc(Cl)ccc3Oc3cc(F)ccc3[C@H]12)C(F)(F)F` (relative stereo) [Example 74, trans-N-(7-Chloro-12-fluoro-2,3,4,14b-tetrahydro-1H-dibenzo[b,f]pyrido[1,2-d][1,4]oxazepin-1-yl)-2,2,2-trifluoroacetamide]: 10 to 100 nM; for `O=C(N[C@H]1CCCN2c3cc(Cl)ccc3Oc3cc(F)c(F)cc3[C@H]12)C(F)(F)F` (relative stereo) [Example 75, trans-N-(7-Chloro-12,13-difluoro-2,3,4,14b-tetrahydro-1H-dibenzo[b,f]pyrido[1,2-d][1,4]oxazepin-1-yl)-2,2,2-trifluoroacetamide]: less than 10 nM.

With `CN1c2ccccc2[C@@H]2[C@@H](NC(=O)C(F)(F)F)CCCN2c2cc(Cl)ccc21` (relative stereo) [Example 76, trans-N-(7-Chloro-1,2,3,4,10,14b-hexahydro-10-methyl-dibenzo[b,f]pyrido[1,2-d][1,4]diazepin-1-yl)-2,2,2-trifluoroacetamide], the EC50 was less than 10 nM. The same measure for `O=C(N[C@H]1CCCN2c3cc(Cl)ccc3Nc3ccccc3[C@H]12)C(F)(F)F` (relative stereo) [Example 78, trans-N-(7-chloro-1,2,3,4,10,14b-hexahydrodibenzo[b,f]pyrido[1,2-d][1,4]diazepin-1-yl)-2,2,2-trifluoroacetamide]: 10 to 100 nM.
